According to PubChem BioAssay (NCI):
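At the GI50, growth is halved. TGI is the concentration that stops growth completely.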

Assays:
Assay in all cases: inhibition of tumour cell growth, NCI panel, 384-well format
786-0 renal = test system: 786-0 renal
A498 renal = test system: A498 renal
A549 NSCLC = test system: A549 NSCLC
ACHN renal = test system: ACHN renal
BT-549 breast = test system: BT-549 breast
CAKI-1 renal = test system: CAKI-1 renal
COLO 205 colon = test system: COLO 205 colon
DU-145 prostate = test system: DU-145 prostate
EKVX NSCLC = test system: EKVX NSCLC
HCC-2998 colon = test system: HCC-2998 colon
HCT-116 colon = test system: HCT-116 colon
HCT-15 colon = test system: HCT-15 colon
HL-60(TB) leukemia = test system: HL-60(TB) leukemia
HOP-62 NSCLC = test system: HOP-62 NSCLC
HOP-92 NSCLC = test system: HOP-92 NSCLC
HS 578T breast = test system: HS 578T breast
HT29 colon = test system: HT29 colon
IGROV1 ovarian = test system: IGROV1 ovarian
KM12 colon = test system: KM12 colon
LOX IMVI melanoma = test system: LOX IMVI melanoma
M14 melanoma = test system: M14 melanoma
MALME-3M melanoma = test system: MALME-3M melanoma
MCF7 breast = test system: MCF7 breast
MDA-MB-231 breast = test system: MDA-MB-231 breast
MDA-MB-435 melanoma = test system: MDA-MB-435 melanoma
MDA-MB-468 breast = test system: MDA-MB-468 breast
MOLT-4 leukemia = test system: MOLT-4 leukemia
NCI-H226 lung = test system: NCI-H226 lung
NCI-H23 lung = test system: NCI-H23 lung
NCI-H322M lung = test system: NCI-H322M lung
NCI-H460 NSCLC = test system: NCI-H460 NSCLC
NCI-H522 lung = test system: NCI-H522 lung
NCI/ADR-RES ovarian = test system: NCI/ADR-RES ovarian
OVCAR-3 ovarian = test system: OVCAR-3 ovarian
OVCAR-4 ovarian = test system: OVCAR-4 ovarian
OVCAR-5 ovarian = test system: OVCAR-5 ovarian
OVCAR-8 ovarian = test system: OVCAR-8 ovarian
PC-3 prostate = test system: PC-3 prostate
RPMI-8226 leukemia = test system: RPMI-8226 leukemia
RXF 393 renal = test system: RXF 393 renal
SF-268 CNS = test system: SF-268 CNS
SF-295 CNS = test system: SF-295 CNS
SF-539 CNS = test system: SF-539 CNS
SK-MEL-28 melanoma = test system: SK-MEL-28 melanoma
SK-MEL-5 melanoma = test system: SK-MEL-5 melanoma
SK-OV-3 ovarian = test system: SK-OV-3 ovarian
SN12C renal = test system: SN12C renal
SNB-19 CNS = test system: SNB-19 CNS
SNB-75 CNS = test system: SNB-75 CNS
SR leukemia = test system: SR leukemia
T-47D breast = test system: T-47D breast
TK-10 renal = test system: TK-10 renal
U251 glioblastoma = test system: U251 glioblastoma
UACC-257 melanoma = test system: UACC-257 melanoma
UACC-62 melanoma = test system: UACC-62 melanoma
UO-31 renal = test system: UO-31 renal

Compound: COc1cc2c(Nc3ccc(Br)cc3F)ncnc2cc1OCC1CCN(C)CC1
- GI50 (786-0 renal): 1370 nM
- TGI (786-0 renal): 2870 nM
- GI50 (A498 renal): 1440 nM
- TGI (A498 renal): 3.34 µM
- GI50 (A549 NSCLC): 2070 nM
- TGI (A549 NSCLC): 11.2 µM
- GI50 (ACHN renal): 553 nM
- TGI (ACHN renal): 3.91 µM
- GI50 (BT-549 breast): 2240 nM
- TGI (BT-549 breast): 5.06 µM
- GI50 (CAKI-1 renal): 1230 nM
- TGI (CAKI-1 renal): 2550 nM
- GI50 (COLO 205 colon): 2350 nM
- TGI (COLO 205 colon): 6.01 µM
- GI50 (DU-145 prostate): 2220 nM
- TGI (DU-145 prostate): 12.4 µM
- GI50 (EKVX NSCLC): 943 nM
- TGI (EKVX NSCLC): 8.63 µM
- GI50 (HCC-2998 colon): 2390 nM
- TGI (HCC-2998 colon): 5.59 µM
- GI50 (HCT-116 colon): 3.1 µM
- TGI (HCT-116 colon): 10.7 µM
- GI50 (HCT-15 colon): 1980 nM
- TGI (HCT-15 colon): 5.36 µM
- GI50 (HL-60(TB) leukemia): 2090 nM
- TGI (HL-60(TB) leukemia): 3.53 µM
- GI50 (HOP-62 NSCLC): 2770 nM
- TGI (HOP-62 NSCLC): 10.4 µM
- GI50 (HOP-92 NSCLC): 1370 nM
- TGI (HOP-92 NSCLC): 2840 nM
- GI50 (HS 578T breast): 1520 nM
- TGI (HS 578T breast): 2920 nM
- GI50 (HT29 colon): 1780 nM
- TGI (HT29 colon): 3.61 µM
- GI50 (IGROV1 ovarian): 262 nM
- TGI (IGROV1 ovarian): 1040 nM
- GI50 (KM12 colon): 5.9 µM
- TGI (KM12 colon): 17.4 µM
- GI50 (LOX IMVI melanoma): 2040 nM
- TGI (LOX IMVI melanoma): 4.24 µM
- GI50 (M14 melanoma): 1980 nM
- TGI (M14 melanoma): 3.42 µM
- GI50 (MALME-3M melanoma): 1770 nM
- TGI (MALME-3M melanoma): 3.16 µM
- GI50 (MCF7 breast): 2780 nM
- TGI (MCF7 breast): 11.1 µM
- GI50 (MDA-MB-231 breast): 1870 nM
- TGI (MDA-MB-231 breast): 4.3 µM
- GI50 (MDA-MB-435 melanoma): 2590 nM
- TGI (MDA-MB-435 melanoma): 4.42 µM
- GI50 (MDA-MB-468 breast): 551 nM
- TGI (MDA-MB-468 breast): 1920 nM
- GI50 (MOLT-4 leukemia): 1920 nM
- TGI (MOLT-4 leukemia): 5.65 µM
- GI50 (NCI-H226 lung): 1300 nM
- TGI (NCI-H226 lung): 5.47 µM
- GI50 (NCI-H23 lung): 3.38 µM
- TGI (NCI-H23 lung): 15.5 µM
- GI50 (NCI-H322M lung): 298 nM
- TGI (NCI-H322M lung): 900 nM
- GI50 (NCI-H460 NSCLC): 4.66 µM
- TGI (NCI-H460 NSCLC): 16 µM
- GI50 (NCI-H522 lung): 616 nM
- TGI (NCI-H522 lung): 2530 nM
- GI50 (NCI/ADR-RES ovarian): 2240 nM
- TGI (NCI/ADR-RES ovarian): 6.43 µM
- GI50 (OVCAR-3 ovarian): 1050 nM
- TGI (OVCAR-3 ovarian): 4.52 µM
- GI50 (OVCAR-4 ovarian): 2300 nM
- TGI (OVCAR-4 ovarian): 10.2 µM
- GI50 (OVCAR-5 ovarian): 2190 nM
- TGI (OVCAR-5 ovarian): 11.5 µM
- GI50 (OVCAR-8 ovarian): 2540 nM
- TGI (OVCAR-8 ovarian): 7.23 µM
- GI50 (PC-3 prostate): 3.46 µM
- TGI (PC-3 prostate): 18.4 µM
- GI50 (RPMI-8226 leukemia): 2840 nM
- TGI (RPMI-8226 leukemia): 6.12 µM
- GI50 (RXF 393 renal): 836 nM
- TGI (RXF 393 renal): 2480 nM
- GI50 (SF-268 CNS): 2460 nM
- TGI (SF-268 CNS): 7.05 µM
- GI50 (SF-295 CNS): 66.6 µM
- TGI (SF-295 CNS): > 100 µM
- GI50 (SF-539 CNS): 2640 nM
- TGI (SF-539 CNS): 8.64 µM
- GI50 (SK-MEL-28 melanoma): 1710 nM
- TGI (SK-MEL-28 melanoma): 3.11 µM
- GI50 (SK-MEL-5 melanoma): 1540 nM
- TGI (SK-MEL-5 melanoma): 3.02 µM
- GI50 (SK-OV-3 ovarian): 1930 nM
- TGI (SK-OV-3 ovarian): 6.31 µM
- GI50 (SN12C renal): 2330 nM
- TGI (SN12C renal): 16.3 µM
- GI50 (SNB-19 CNS): 10.6 µM
- TGI (SNB-19 CNS): > 100 µM
- GI50 (SNB-75 CNS): 1570 nM
- TGI (SNB-75 CNS): 3.61 µM
- GI50 (SR leukemia): 3.54 µM
- TGI (SR leukemia): 5.01 µM
- GI50 (T-47D breast): 1330 nM
- TGI (T-47D breast): 8.79 µM
- GI50 (TK-10 renal): 1980 nM
- TGI (TK-10 renal): 5.1 µM
- GI50 (U251 glioblastoma): 4.46 µM
- TGI (U251 glioblastoma): 17.1 µM
- GI50 (UACC-257 melanoma): 1900 nM
- TGI (UACC-257 melanoma): 3.32 µM
- GI50 (UACC-62 melanoma): 1830 nM
- TGI (UACC-62 melanoma): 3.37 µM
- GI50 (UO-31 renal): 1160 nM
- TGI (UO-31 renal): 2460 nM
